Experiments:
Coagulation factor IX = Coagulation factor IX (Homo sapiens, UniProt P00740); assay: Inhibition of human factor 9a using CH3SO2-D-CHG-Gly-Arg-AFC.AcOH as substrate by fluorescence assay
Coagulation factor X = Coagulation factor X (Homo sapiens, UniProt P00742); assay: Inhibition of human factor 10a using n-Acetyl-KPR-AFC as substrate by fluorescence assay
[1] = Inhibition of CYP (unknown origin); format: ADME; conditions: human
[2] = molecular target: Voltage-gated inwardly rectifying potassium channel KCNH2 (Homo sapiens, UniProt Q12809); assay: Inhibition of human ERG
Chain of Voltage-gated inwardly rectifying potassium channel KCNH2 (Q12809 whole entry): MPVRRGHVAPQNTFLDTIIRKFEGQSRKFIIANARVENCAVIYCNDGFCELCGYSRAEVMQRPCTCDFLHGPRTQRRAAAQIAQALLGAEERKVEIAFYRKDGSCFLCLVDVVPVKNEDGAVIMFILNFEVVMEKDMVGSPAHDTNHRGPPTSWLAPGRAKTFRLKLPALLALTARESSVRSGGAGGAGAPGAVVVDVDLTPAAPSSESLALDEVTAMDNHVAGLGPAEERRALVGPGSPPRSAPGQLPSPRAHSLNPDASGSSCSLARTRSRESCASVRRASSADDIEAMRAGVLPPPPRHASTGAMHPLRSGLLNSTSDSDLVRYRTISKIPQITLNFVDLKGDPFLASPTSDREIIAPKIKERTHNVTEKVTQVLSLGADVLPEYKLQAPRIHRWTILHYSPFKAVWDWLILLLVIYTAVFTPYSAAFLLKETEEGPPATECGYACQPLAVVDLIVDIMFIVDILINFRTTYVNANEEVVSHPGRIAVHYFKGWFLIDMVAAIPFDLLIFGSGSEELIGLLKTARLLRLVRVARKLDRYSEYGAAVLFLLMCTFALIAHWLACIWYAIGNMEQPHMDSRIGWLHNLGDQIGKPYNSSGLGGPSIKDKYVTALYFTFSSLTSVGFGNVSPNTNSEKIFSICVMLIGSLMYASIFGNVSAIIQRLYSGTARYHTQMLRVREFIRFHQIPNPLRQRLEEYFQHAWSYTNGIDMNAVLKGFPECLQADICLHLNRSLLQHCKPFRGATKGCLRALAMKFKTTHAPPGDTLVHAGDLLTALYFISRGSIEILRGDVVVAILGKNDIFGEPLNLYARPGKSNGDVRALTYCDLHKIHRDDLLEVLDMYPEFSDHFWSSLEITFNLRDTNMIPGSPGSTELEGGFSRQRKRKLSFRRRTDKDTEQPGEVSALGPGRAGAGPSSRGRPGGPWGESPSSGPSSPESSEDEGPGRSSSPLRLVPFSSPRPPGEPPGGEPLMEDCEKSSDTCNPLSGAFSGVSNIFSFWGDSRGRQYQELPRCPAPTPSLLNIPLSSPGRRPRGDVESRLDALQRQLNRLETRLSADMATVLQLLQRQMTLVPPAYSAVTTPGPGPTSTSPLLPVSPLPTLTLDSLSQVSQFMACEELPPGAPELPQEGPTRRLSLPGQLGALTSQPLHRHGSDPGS

Chain of Coagulation factor IX (P00740 47-191 limits assumed): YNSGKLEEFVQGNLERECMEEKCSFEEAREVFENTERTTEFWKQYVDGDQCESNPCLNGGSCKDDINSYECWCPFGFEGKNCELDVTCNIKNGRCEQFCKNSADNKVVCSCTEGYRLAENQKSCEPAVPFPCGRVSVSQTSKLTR
Chain of Coagulation factor IX (P00740 227-461 limits assumed): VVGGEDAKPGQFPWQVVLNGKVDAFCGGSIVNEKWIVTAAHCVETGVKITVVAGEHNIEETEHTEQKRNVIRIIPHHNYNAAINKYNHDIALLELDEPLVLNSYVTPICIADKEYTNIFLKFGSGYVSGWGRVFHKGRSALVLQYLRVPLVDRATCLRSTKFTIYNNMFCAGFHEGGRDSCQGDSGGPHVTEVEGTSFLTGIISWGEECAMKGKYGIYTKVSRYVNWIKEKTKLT
Chain of Coagulation factor X (P00742 41-179 limits assumed): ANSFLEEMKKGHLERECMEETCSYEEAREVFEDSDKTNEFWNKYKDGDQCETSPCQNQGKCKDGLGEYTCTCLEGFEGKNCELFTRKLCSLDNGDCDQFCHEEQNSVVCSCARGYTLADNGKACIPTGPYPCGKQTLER
Chain of Coagulation factor X (P00742 235-488 limits assumed): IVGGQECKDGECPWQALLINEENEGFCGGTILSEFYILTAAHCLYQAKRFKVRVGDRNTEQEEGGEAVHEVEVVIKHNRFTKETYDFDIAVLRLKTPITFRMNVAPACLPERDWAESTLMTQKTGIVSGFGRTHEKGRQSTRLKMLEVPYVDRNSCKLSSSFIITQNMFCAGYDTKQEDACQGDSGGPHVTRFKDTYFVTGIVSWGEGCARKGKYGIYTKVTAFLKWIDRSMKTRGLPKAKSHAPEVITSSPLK

Compound	Ki (Coagulation factor IX)	also measured
Cc1ccc(O)c2nc(CCNC(=O)c3ccc(-n4cnnc4)cc3Cl)[nH]c12	131 µM	–
Cc1cc2nc(CCNC(=O)c3ccc(C#N)cc3F)[nH]c2cc1C	> 145 µM	–
Cc1ccc(O)c2c3c(nn12)CCC(C)(NC(=O)c1ccc(-n2ccnc2)cc1Cl)C3 (configuration not stated)	0.595 µM	–
Cc1ccc(O)c2c3c(nn12)CCC(C)(NC(=O)c1ccc(C#N)cc1F)C3 (configuration not stated)	2 µM	Ki (Coagulation factor X): > 62.5 µM
Cc1cc2nc(CCNC(=O)c3ccc(-n4cnnc4)cc3)[nH]c2cc1C	–	Ki (Coagulation factor X): > 62.5 µM
Cc1cc2nc(C[C@H](C)NC(=O)c3ccc(-n4cnnc4)cc3Cl)[nH]c2cc1C	55.4 µM	–
Cc1cc2nc(CCNC(=O)c3ccc(-n4cncn4)cc3Cl)[nH]c2cc1C	2.12 µM	–
Cc1ccc(O)c2c3c(nn12)CCC(C)(NC(=O)c1ccc(C#N)cc1)C3 (configuration not stated)	20.6 µM	–
Cc1ccc(O)c2c3c(nn12)CCC(C)(NC(=O)c1ccc(-n2cncn2)cc1Cl)C3 (configuration not stated)	0.156 µM	–
Cc1ccc(O)c2c3c(nn12)CCC(C)(NC(=O)c1ccc(-n2cnnc2)cc1Cl)C3 (configuration not stated)	0.09 µM	Ki (Coagulation factor X): 12 µM; inhibition (INH) [1]: Not Active; inhibition (INH) [2]: Not Active
Cc1cc2nc(CCNC(=O)c3ccccc3-n3cnnc3)[nH]c2cc1C	> 145 µM	–
Cc1ccc(O)c2c3c(nn12)CCC(C)(NC(=O)c1ccc(-n2ccnn2)cc1Cl)C3 (configuration not stated)	0.937 µM	–
Cc1cc2nc(C[C@@H](C)NC(=O)c3ccc(-n4cnnc4)cc3Cl)[nH]c2cc1C	35 µM	–
Cc1ccc(O)c2c3c(nn12)CCC(C)(NC(=O)c1ccc(-n2cccn2)cc1Cl)C3 (configuration not stated)	4.4 µM	–
Cc1cc2nc(CCNC(=O)c3ccc(-n4ccnn4)cc3Cl)[nH]c2cc1C	130 µM	–
Cc1cc2nc(CCNC(=O)c3ccccc3Cl)[nH]c2cc1C	> 145 µM	–
Cc1ccc(O)c2c3c(nn12)CCC(C)(NC(=O)c1ccccc1Cl)C3 (configuration not stated)	6.34 µM	–
Cc1cc2nc(C(C)CNC(=O)c3ccc(-n4cnnc4)cc3Cl)[nH]c2cc1C (racemic)	0.34 µM	–
Cc1cc2nc(CCNC(=O)c3ccc(-n4nccn4)cc3Cl)[nH]c2cc1C	> 145 µM	–
Cc1cc2nc([C@@H](CNC(=O)c3ccc(-n4cnnc4)cc3Cl)c3ccccc3)[nH]c2cc1C	0.016 µM	Ki (Coagulation factor X): 0.39 µM; inhibition (INH) [1]: Not Active; inhibition (INH) [2]: Not Active
Cc1ccc(O)c2c3c(nn12)CCC(C)(NC(=O)c1ccc(-n2ccnn2)cc1)C3 (configuration not stated)	0.462 µM	–
Cc1cc2nc([C@H](CNC(=O)c3ccc(-n4cnnc4)cc3Cl)c3ccccc3)[nH]c2cc1C	0.52 µM	–
Cc1ccc(O)c2c3c(nn12)CCC(C)(NC(=O)c1ccc(F)cc1)C3 (configuration not stated)	18.3 µM	–
Cc1ccc(O)c2c3c(nn12)CCC(C)(NC(=O)c1ccc(-n2nccn2)cc1Cl)C3 (configuration not stated)	30.3 µM	–
Cc1cc2nc(CCNC(=O)c3ccc(-n4ccnc4)cc3Cl)[nH]c2cc1C	5.58 µM	–

— ChEMBL document CHEMBL3421601, “Rapid development of two factor IXa inhibitors from hit to lead” (Bioorg Med Chem Lett, 2015)
